Where two headings read alike, the source gives them in different places.
What was measured:
[1] = Test Example 5: pharmacokinetics in beagles (plasma EPA, LC/MS/MS); parameters: species or system male beagles; conditions: dog, in vivo, po, 600 mg
Experimental: The produced compositions or capsules (Examples 1, 3 and 5) were each orally administered to 6 male beagles (at the age of 2 to 6 years with the body weight of 8 to 13 kg, 3 Marshall beagles and 3 Nosan beagles) under fasting conditions, and blood EPA concentration was evaluated. […] The control group was administered with the EPA-E stock solution encapsulated in a capsule.

[2] = human, in vivo, po, 3600 mg
Experimental: (§1) The capsule having the self-emulsifying composition of the present invention containing 80% by weight of EPA-E as its content was orally administered to human (12 cases, healthy adult males of 20 to 40 years old with a body weight of 55.0 to 77.0 kg and a BMI of 18.5 or more but less than 25.0) under fasting conditions to evaluate the change of blood EPA concentration. The self-emulsifying composition in an amount corresponding to 1800 mg of EPA-E was orally administered in single dose to each human who had been fasted since 10 hours or more before the administration by using 200 mL of water in the morning under fasting. The blood was collected 0.5, 1, 1.5, 2, 3, 4, 5, 6, 7, 8, 9, 10, 12, 15, 18, 24, 48 and 72 hours after the administration. Immediately after the collection, the blood was cooled on ice, and centrifuged at 2000×g at 4° C. for 10 minutes to separately collect the plasma. After having stored the resulting plasma at a temperature not higher than −20° C. in frozen state, concentration of the EPA in the plasma was measured by LC/MS/MS (method in which a sample is isolated by liquid chromatography, then subjected to mass spectrometry to conduct separation and measurement thereon).
(§2) The capsule having the self-emulsifying composition of the present invention containing 80% by weight of EPA-E as its content was also orally administered to human immediately after meals, and the measurement was conducted by repeating the procedure as described above.
(§3) For the control group, the EPA-E stock solution (high purity EPA-E (at least 96.5% by weight) containing no emulsifier or the like and used with the same EPA-E amount as that of the self-emulsifying composition of the present invention; the same applying hereafter) filled in the capsule was orally administered to human (12 cases, healthy adult males of 20 to 40 years old with a body weight of 55.0 to 77.0 kg and a BMI of 18.5 or more but less than 25.0) under fasting conditions (fasting since at least 10 hours before the administration), and the measurement was conducted by repeating the procedure as described above.
This test was conducted on 6 humans. […] In the calculation of each parameter, correction was made by subtracting the blood EPA concentration before the administration from the measured blood concentration.

[3] = human, in vivo, po, 1800 mg
Experimental: as §1, §2, §3
In the calculation of each parameter, correction was made by subtracting the blood EPA concentration before the administration from the measured blood concentration.

In the case of `CC/C=C\C/C=C\C/C=C\C/C=C\C/C=C\CCCC(=O)OCC` [Comp. Ex. 5, Ethyl eicosapentaenoate], the AUC0-1 [1] is reported as 11300 ng·h/mL, the AUC0-26 [1] is reported as 76600 ng·h/mL and the Cmax [1] is reported as 18400 ng/mL. The AUC0-72 hr [2] was 113700 ng·h/mL, the Cmax [2] was 3600 ng/mL and the Tmax [2] was 21.8 h. For the same compound, the t½ [2] was 22.8 h, the AUC0-72 hr [3] was 113100 ng·h/mL and the Cmax [3] was 4600 ng/mL. The Tmax [3] was 10.8 h and the t½ [3] was 71.7 h.
